Two molecules from publication PMC10629583, “Specific inhibition of an anticancer target, polo-like kinase 1, by allosterically dismantling its mechanism of substrate recognition” (Proceedings of the National Academy of Sciences of the …, 2023) can be followed below.

“And” between values parts separate entries of the source, which are not always exact repeats. Equal values may be shown once.

The target of one assay is T1, PBD1 F559R mutant (Homo sapiens, UniProt P53350, F559R).
T1 construct: constructs expressing PBD1 (residues 345–603) WT (pKM7650); His; TEV site (N); made in house; host or cells: bacteria (E. coli)
Put plainly: FP-based binding/inhibition assay, PBD1 F559R. Conditions: PBD1 F559R, 2 µM protein. On the procedure:
FP assays were carried out essentially as described previously ([35], [36]). FITC-conjugated ligands (15 nM) were mixed with PBDs at their EC85 concentrations. All the samples were analyzed approximately 30 min after reaction in a 384-well format using the SpectraMax Paradigm multimode microplate detection platform (Molecular Devices). Data were analyzed after carrying out at least three independent experiments using GraphPad Prism software version 8.
Fig. S4. Generation of F559 mutants for in vitro and cell-based assays in Fig. 4. (A) SDS-PAGE showing the proteins used for the FP assays in Fig. 4 A and B. CBB, a Coomassie Brilliant Blue– stained gel. (B) Summary of Kd and EC85 values for PBD1 WT and mutants. The Kd values for PBD1 WT and mutants were determined after extrapolating them from the binding curves as the concentration at which 50% of the FITC-Ahx-DPPLHSpTAI-NH2 are PBD1-bound. The EC85 values indicate the effective concentration of 85% of the maximal concentration calculated for each protein. The FP values were obtained 30 minutes after incubation. For the F559K and F559R mutants, we were not able to determine the EC85 values and therefore used 2 µM of these proteins for the assays in Fig. 4B. N.D., not determined. […]

The target of another assay is T2, Plk1 PBD (PBD1) (Homo sapiens, UniProt P53350).
T2 construct: constructs expressing PBD1 (residues 345–603) WT (pKM7650); His; TEV site (N); made in house; host or cells: bacteria (E. coli)
Put plainly: FP-based inhibition assay, PBD1. The format is binding. On the procedure:
FP assays were carried out essentially as described previously ([35], [36]). […] All the samples were analyzed approximately 30 min after reaction in a 384-well format using the SpectraMax Paradigm multimode microplate detection platform (Molecular Devices). Data were analyzed after carrying out at least three independent experiments using GraphPad Prism software version 8.

A further assay deals with HeLa cells. Put plainly: Time-lapse analysis of double thymidine-released HeLa cells. Type of assay: cell-based. Conditions: HeLa released from double-thymidine block, 10 μM added 7 h after release. On the procedure:
To carry out time-lapse analysis, HeLa cells were arrested at the G1/S boundary by treating them with 2.5 mM of thymidine for 18 h, releasing them for 9 h, and then treating them again with the same dose of thymidine for another 18 h. The resulting cells were washed with fresh medium, released from the double-thymidine block for 7 h, and then treated with control DMSO or 10 μM of Allopole to examine their effect on cell cycle progression. At the indicated time points, cells were imaged every 30 min using a Keyence BZ-X710 all-in-one microscope.

Assay [1] deals with mGFP-Plk1 WT at centrosomes, U2OS cells. Briefly: Confocal quantification of Pendo-mGFP-Plk1 WT in U2OS cells (siPlk1). The format is cell-based. Conditions: U2OS siPlk1, 8 μM. The method, then:
To corroborate the importance of the F559 residue for Allopole-A binding, U2OS cells expressing endogenous promoter (i.e., Pendo)-controlled mGFP-Plk1 WT or F559D mutant were depleted of endogenous Plk1 by RNAi for 48 h (SI Appendix, Fig. S4C), treated with control DMSO or 8 μM of Allopole for 2 or 16 h, and fixed (SI Appendix, Fig. S4D). Afterward, the level of mGFP fluorescence was quantified using confocal microscopy (Fig. 4 C and D). As expected from the results shown in Fig. 1 C and D, Allopole delocalized mGFP-Plk1 WT from centrosomes within 2 h after treatment, and this effect was sustained for up to 16 h. […] This could be attributable to the fact that unlike PBIP1, which binds to PBD1 through the self-priming and binding mechanism ([49]), Bub1, BubR1, and likely Cdc25C require Cdc2-dependent priming phosphorylation to interact with PBD1 ([42]–[44]). […]
(§1) Confocal images of unsaturated fluorescence signals were acquired under the same laser intensity at the 12-bit resolution. Fluorescence intensities for identifiable centrosome and kinetochore signals were quantified after the maximum-intensity projection of z-stacks using the Zeiss ZEN v2.1 software (Carl Zeiss Microscopy, LLC). Data were quantified from three independent experiments.

Assay [2] has as its system Plk1 at centrosomes and kinetochores, HeLa cells. Put plainly: Confocal imaging of Plk1 localization in HeLa cells. Conditions: 10 μM, 2 h. The format is cell-based. On the procedure: HeLa cells treated with either control DMSO or on 10 μM of Allopole for 2 h were immunostained using anti-Plk1 (F-8, sc-17783, Santa Cruz Biotechnologies), anti-Cep192 ([63]), and anti-CREST (#15-234, Antibodies Incorporated) antibodies and appropriate secondary antibodies, essentially as described previously ([62]). Samples were additionally stained with 2 µg/mL of Hoechst 33342 to reveal chromosomal morphologies. Images were captured using a Zeiss LSM 780 confocal microscope (Carl Zeiss Microscopy, LLC) equipped with plan-apochromat 40× (N.A. 1.3) and 63× (N.A. 1.4) oil-immersion objective lenses; a 34-channel GaAsP spectral detector; and 12-bit, 0.5-μm z-steps.
as §1

Assay [3] has as its system U2OS cells expressing Pendo-mGFP-Plk1 WT. Put plainly: MTS proliferation assay, U2OS Plk1 RNAi cells expressing WT Plk1. The format is cell-based. Conditions: WT Plk1, 3 to 6 μM, 36 h. The method, then: Cell viability was determined using the […] CellTiter 96® AQueous One Solution Cell Proliferation Assay (MTS) kit (Promega) containing a tetrazolium compound [3-(4,5-dimethylthiazol-2-yl)-5-(3-carboxymethoxy-phenyl)-2-(4-sulfophenyl)-2H-tetrazolium, inner salt (MTS)] and an electron-coupling phenazine ethosulfate. For the MTS assays in Fig. 1B, L363 cells cultured in a 96-well plate were treated with the indicated compounds for 48 h (the final volume of 100 μL). After the compound treatment, cells were additionally treated with 20 μL of the MTS solution and incubated at 37 °C for 2 to 4 h in a humidified 5% CO2 atmosphere. The absorbance of the resulting sample was measured at 490 nm using a PerkinElmer EnSpire Multimode 96-well plate reader. For the MTS assays in Fig. 4E, U2OS cells stably expressing either Pendo-mGFP-Plk1 WT or F559D were seeded at approximately 5,000 cells/well in a 96-well plate, depleted of endogenous Plk1 by RNAi, and then treated with either control DMSO or Allopole as indicated in the schematic diagram in SI Appendix, Fig. S4E.

T2 sequence (P53350 345-603): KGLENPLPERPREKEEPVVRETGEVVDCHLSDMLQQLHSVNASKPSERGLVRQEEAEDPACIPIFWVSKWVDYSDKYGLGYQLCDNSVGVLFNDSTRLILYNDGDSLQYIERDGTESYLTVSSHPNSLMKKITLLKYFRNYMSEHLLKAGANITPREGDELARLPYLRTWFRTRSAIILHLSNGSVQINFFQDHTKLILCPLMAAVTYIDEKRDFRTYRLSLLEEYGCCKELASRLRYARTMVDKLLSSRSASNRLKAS
T1 sequence (P53350 345-603 F559R): as the sequence (P53350 345-603) above, with F215R counted along it

A word on the IC50: it is the concentration needed to halve the response being measured. Regarding `O=c1c2sc(Cl)cc2n2c(=S)[nH]nc2n1CC1CC1` [Allopole-A], the “Inhibition of FITC-phosphopeptide binding (in words)” value at PBD1 F559R mutant is given as “failed to inhibit”; on Plk1 PBD (PBD1) (PBD1 WT at EC85), “effectively inhibited PBD1 WT”. In addition, the IC50 at Plk1 PBD (PBD1) (FP, bacterially expressed purified PBD, FITC-ligand 15 nM, PBD at EC85, read-out: PBD1 IC50 ± SD) is 2.5 nM and 2.53 nM.
`Cn1cnc([N+](=O)[O-])c1Sc1nnc2n(CC3CC3)c(=O)c3sc(Cl)cc3n12` [Allopole]: the “Mitotic progression (in words)” value in the assay on HeLa cells was “effectively blocked mitotic progression for several hours and induced cell death”. Further, in assay [1], the “Time to delocalization of mGFP-Plk1 WT from centrosomes” value is recorded as no more than 2 h. Moreover, the “Plk1 signals localized at centrosomes and kinetochores (in words)” value in assay [2] is given as “greatly diminished”. Further, the “Proliferation rate (in words)” value in assay [3] is “significant reduction in their proliferation rate”.
